The source made the active and inactive calls. The calls are words filed in the database; no cut-off is given here.
Experiments:
Meloidogyne incognita [1] = experiment: Nematicidal activity against second-stage juvenile Meloidogyne incognita (root-knot nematode) infested tomato plant under greenhouse condition assessed as plant vigour at 8 kg/hectare measured after 30 days; format: functional
Meloidogyne incognita [2] = experiment: Nematicidal activity against second-stage juvenile Meloidogyne incognita (root-knot nematode) infested tomato field assessed as medium fruit yield at 8 kg/hectare; format: functional
Meloidogyne incognita [3] = experiment: Nematicidal activity against second-stage juvenile Meloidogyne incognita (root-knot nematode) infested tomato field assessed as reduction in number of nematodes in soil at 8 kg/hectare measured after 20 days; format: functional, organism-based
Meloidogyne incognita [4] = experiment: Nematicidal activity against second-stage juvenile Meloidogyne incognita (root-knot nematode) infested tomato field assessed as plant height at 8 kg/hectare measured after 30 days; format: functional
Meloidogyne incognita [5] = experiment: Nematicidal activity against second-stage juvenile Meloidogyne incognita (root-knot nematode) infested tomato field assessed as reduction in number of nematodes in soil at 8 kg/hectare measured after 60 days; format: functional, organism-based
Meloidogyne incognita [6] = experiment: Nematicidal activity against second-stage juvenile Meloidogyne incognita (root-knot nematode) infested tomato plant under greenhouse condition assessed as fresh root weight at 8 kg/hectare measured after 30 days; format: functional
Meloidogyne incognita [7] = experiment: Nematicidal activity against second-stage juvenile Meloidogyne incognita (root-knot nematode) infested tomato field assessed as plant vigour at 8 kg/hectare measured after 30 days; format: functional
Meloidogyne incognita [8] = experiment: Nematicidal activity against second-stage juvenile Meloidogyne incognita (root-knot nematode) infested tomato field assessed as plant height at 8 kg/hectare measured after 50 days; format: functional
Meloidogyne incognita [9] = experiment: Nematicidal activity against second-stage juvenile Meloidogyne incognita (root-knot nematode) infested tomato field assessed as reduction in root galling index at 8 kg/hectare measured after 30 days; format: functional, organism-based
Meloidogyne incognita [10] = experiment: Nematicidal activity against second-stage juvenile Meloidogyne incognita (root-knot nematode) infested tomato field assessed as marketable yield at 8 kg/hectare; format: functional
Meloidogyne incognita [11] = experiment: Nematicidal activity against second-stage juvenile Meloidogyne incognita (root-knot nematode) infested tomato plant under greenhouse condition assessed as reduction in root galling index at 8 kg/hectare measured after 30 days; format: functional, organism-based
Meloidogyne incognita [12] = experiment: Nematicidal activity against second-stage juvenile Meloidogyne incognita (root-knot nematode) infested tomato plant under greenhouse condition assessed as plant height at 8 kg/hectare measured after 30 days; format: functional
Meloidogyne incognita [13] = experiment: Nematicidal activity against second-stage juvenile Meloidogyne incognita (root-knot nematode) infested tomato field assessed as large fruit yield at 8 kg/hectare; format: functional
Meloidogyne incognita [14] = experiment: Nematicidal activity against second-stage juvenile Meloidogyne incognita (root-knot nematode) infested tomato field assessed as reduction in number of nematodes in soil at 8 kg/hectare measured after 40 days; format: functional, organism-based
Meloidogyne incognita [15] = experiment: Nematicidal activity against second-stage juvenile Meloidogyne incognita (root-knot nematode) infested tomato field assessed as extra-large fruit yield at 8 kg/hectare; format: functional
Meloidogyne incognita [16] = experiment: Nematicidal activity against second-stage juvenile Meloidogyne incognita (root-knot nematode) assessed as mortality after 48 hr; format: functional

Q: Which results are given for `CCOP(=O)(SC(C)CC)SC(C)CC` (configuration not stated) [CADUSAFOS]?
A: Activity (Meloidogyne incognita [1]): 91%; Activity (Meloidogyne incognita [2]): 41.6%; Activity (Meloidogyne incognita [3]): Active; Activity (Meloidogyne incognita [4]): 38.6 cm; Activity (Meloidogyne incognita [5]): Active; Activity (Meloidogyne incognita [6]): 1.13 g; Activity (Meloidogyne incognita [7]): 90%; Activity (Meloidogyne incognita [8]): 101.8 cm; Activity (Meloidogyne incognita [9]): Active; Activity (Meloidogyne incognita [10]): 68.7%; Activity (Meloidogyne incognita [11]): Active; Activity (Meloidogyne incognita [12]): 39.2 cm; Activity (Meloidogyne incognita [13]): 19.9%; Activity (Meloidogyne incognita [14]): Active; Activity (Meloidogyne incognita [15]): 7.2%; LC50 (Meloidogyne incognita [16]): 13.43 mgAi/L; LC90 (Meloidogyne incognita [16]): 50.34 mgAi/L

Source: ChEMBL document CHEMBL3045788, “Effect of abamectin on root-knot nematodes and tomato yield” (Pest Manag Sci, 2012)
